Data as given in PMC12028158, “Synthesis and In Vitro Evaluation of the Anticancer Effect of Novel Phosphonium Vindoline Derivatives” (International Journal of Molecular Sciences, 2025).
Where two headings read alike, the source gives them in different places.

Key:
Format in all cases: cell-based
[1] = tested on: 60 human tumor cell lines (NCI60); experiment: NCI60 five-dose screen, overall mean
SK-MEL-2 = experiment: NCI60 one-dose screen; details: Homo sapiens
RPMI-8226 = experiment: NCI60 five-dose screen; details: Homo sapiens
SK-OV-3 [2] = experiment: NCI60 one-dose screen; details: Homo sapiens
RXF 393 = experiment: NCI60 one-dose screen; details: Homo sapiens
A549/ATCC = experiment: NCI60 one-dose screen; details: Homo sapiens
HCC-2998 [3] = experiment: NCI60 one-dose screen; details: Homo sapiens
PC-3 [4] = experiment: NCI60 five-dose screen; details: Homo sapiens
MALME-3M = experiment: NCI60 five-dose screen; details: Homo sapiens
HL-60(TB) = experiment: NCI60 one-dose screen; details: Homo sapiens
Prostate Cancer panel = experiment: NCI60 five-dose screen, panel mean; details: Homo sapiens
HCC-2998 [5] = experiment: NCI60 five-dose screen; details: Homo sapiens
SK-OV-3 [6] = experiment: NCI60 five-dose screen; details: Homo sapiens
HOP-92 = experiment: NCI60 five-dose screen; details: Homo sapiens
NCI-H522 = experiment: NCI60 five-dose screen; details: Homo sapiens
CCRF-CEM = experiment: NCI60 one-dose screen; details: Homo sapiens, read-out: Growth percent
Melanoma panel = experiment: NCI60 five-dose screen, panel mean; details: Homo sapiens
MDA-MB-435 = experiment: NCI60 one-dose screen; details: Homo sapiens
K-562 = experiment: NCI60 one-dose screen; details: Homo sapiens
PC-3 [7] = experiment: NCI60 one-dose screen; details: Homo sapiens
OVCAR-3 [8] = experiment: NCI60 five-dose screen; details: Homo sapiens
LOX IMVI = experiment: NCI60 one-dose screen; details: Homo sapiens, read-out: Growth percent
NCI-H23 = experiment: NCI60 five-dose screen; details: Homo sapiens
MCF7 = experiment: NCI60 one-dose screen; details: Homo sapiens
SR = experiment: NCI60 five-dose screen; details: Homo sapiens
OVCAR-8 = experiment: NCI60 five-dose screen; details: Homo sapiens
SW-620 = experiment: NCI60 one-dose screen; details: Homo sapiens
SF-539 = experiment: NCI60 five-dose screen; details: Homo sapiens
OVCAR-3 [9] = experiment: NCI60 one-dose screen; details: Homo sapiens
EKVX = experiment: NCI60 one-dose screen; details: Homo sapiens, read-out: Growth percent
SNB-19 = experiment: NCI60 one-dose screen; details: Homo sapiens
SF-295 = experiment: NCI60 five-dose screen; details: Homo sapiens
HT29 = experiment: NCI60 five-dose screen; details: Homo sapiens, HT-29
OVCAR-4 = experiment: NCI60 one-dose screen; details: Homo sapiens

## CC[C@]12C=CCN3CC[C@@]4(c5ccc(OC)cc5N(C)[C@H]4[C@@](O)(C(=O)OC)[C@@H]1OC(=O)CCCC[P+](c1ccc(F)cc1)(c1ccc(F)cc1)c1ccc(F)cc1)[C@@H]32 [10c]
[1]; mean over all 60 human cancer cell lines, read-out: GI50 Mean
  GI50: 24.9 µM
SK-MEL-2; SK-MEL-2, 10 μM, one-dose, read-out: Growth percent
  activity at 10 µM: -54%
RPMI-8226; RPMI-8226, Leukemia, read-out: GI50
  GI50: 2970 nM
SK-OV-3 [2]; SK-OV-3, 10 μM, one-dose, read-out: Growth percent
  activity at 10 µM: 41.4%
RXF 393; RXF 393, 10 μM, one-dose, read-out: Growth percent
  activity at 10 µM: -9.93%
A549/ATCC; A549/ATCC, 10 μM, one-dose, read-out: Growth percent
  activity at 10 µM: 37.5%
HCC-2998 [3]; HCC-2998, 10 μM, one-dose, read-out: Growth percent
  activity at 10 µM: 19.4%
PC-3 [4]; PC-3, Prostate Cancer, read-out: GI50
  GI50: 16.4 µM
MALME-3M; MALME-3M, Melanoma, read-out: GI50
  GI50: 13.5 µM
HL-60(TB); HL-60(TB), 10 μM, one-dose, read-out: Growth percent
  activity at 10 µM: -32.2%
Prostate Cancer panel; mean over Prostate Cancer panel, read-out: GI50 Mean
  GI50: 25.9 µM
HCC-2998 [5]; HCC-2998, Colon Cancer, read-out: GI50
  GI50: 12.5 µM
SK-OV-3 [6]; SK-OV-3, Ovarian Cancer, read-out: GI50
  GI50: 23.5 µM
HOP-92; HOP-92, Non-small Cell Lung Cancer, read-out: GI50
  GI50: 6.32 µM
NCI-H522; NCI-H522, Non-small Cell Lung Cancer, read-out: GI50
  GI50: 5.44 µM
CCRF-CEM; 10 μM, one-dose
  activity at 10 µM: 19.9%
Melanoma panel; mean over Melanoma panel, read-out: GI50 Mean
  GI50: 12.5 µM
MDA-MB-435; MDA-MB-435, 10 μM, one-dose, read-out: Growth percent
  activity at 10 µM: -16%
K-562; K562, K-562, 10 μM, one-dose, read-out: Growth percent
  activity at 10 µM: 17.1%
PC-3 [7]; PC-3, 10 μM, one-dose, read-out: Growth percent
  activity at 10 µM: 15.7%
OVCAR-3 [8]; OVCAR-3, Ovarian Cancer, read-out: GI50
  GI50: 9.3 µM
LOX IMVI; 10 μM, one-dose
  activity at 10 µM: 25%
NCI-H23; NCI-H23, Non-small Cell Lung Cancer, read-out: GI50
  GI50: 20.1 µM
MCF7; MCF7, 10 μM, one-dose, read-out: Growth percent
  activity at 10 µM: 5.18%
SR; Leukemia, read-out: GI50
  GI50: 14.5 µM
OVCAR-8; OVCAR-8, Ovarian Cancer, read-out: GI50
  GI50: 29.4 µM
SW-620; SW-620, 10 μM, one-dose, read-out: Growth percent
  activity at 10 µM: 36.9%
SF-539; SF-539, CNS Cancer, read-out: GI50
  GI50: 21.9 µM
OVCAR-3 [9]; OVCAR-3, 10 μM, one-dose, read-out: Growth percent
  activity at 10 µM: 12.6%
EKVX; 10 μM, one-dose
  activity at 10 µM: 53%
SNB-19; SNB-19, 10 μM, one-dose, read-out: Growth percent
  activity at 10 µM: 6.61%
SF-295; SF-295, CNS Cancer, read-out: GI50
  GI50: 30.6 µM
HT29; HT29, Colon Cancer, read-out: GI50
  GI50: 15.4 µM
OVCAR-4; OVCAR-4, 10 μM, one-dose, read-out: Growth percent
  activity at 10 µM: 33.1%

## CC[C@]12C=CCN3CC[C@@]4(c5ccc(OC)cc5N(C)[C@H]4[C@@](O)(C(=O)OC)[C@@H]1OC(=O)CCC[P+](C1CCCCC1)(C1CCCCC1)C1CCCCC1)[C@@H]32 [9d]
[1]; 60 cell, read-out: Mean GI50, mean over all 60 cell lines
  GI50: 3.8 µM
SK-MEL-2; SK-MEL-2, read-out: Growth percent
  activity at 10 µM: -84.9%
RPMI-8226; RPMI-8226
  GI50: 383 nM
SK-OV-3 [2]; SK-OV-3, read-out: Growth percent
  activity at 10 µM: -7.72%
RXF 393; RXF 393, read-out: Growth percent
  activity at 10 µM: -70.3%
A549/ATCC; A549, read-out: Growth percent
  activity at 10 µM: 14.1%
HCC-2998 [3]; HCC 2998, read-out: Growth percent
  activity at 10 µM: -92.6%
PC-3 [4]; PC-3
  GI50: 1.71 µM
MALME-3M; Malme-3M
  GI50: 1.46 µM
HL-60(TB); HL-60, read-out: Growth percent
  activity at 10 µM: -37.1%
Prostate Cancer panel; read-out: Mean GI50
  GI50: 2.73 µM
HCC-2998 [5]; HCC 2998
  GI50: 1.7 µM
SK-OV-3 [6]; SK-OV-3
  GI50: 2.59 µM
HOP-92; HOP-92
  GI50: 1.01 µM
NCI-H522; NCI-H522
  GI50: 6.88 µM
CCRF-CEM
  activity at 10 µM: -40.9%
Melanoma panel; read-out: Mean GI50
  GI50: 1.7 µM
MDA-MB-435; MDA-MB-435, read-out: Growth percent
  activity at 10 µM: -80.1%
K-562; K562, read-out: Growth percent
  activity at 10 µM: 3.31%
PC-3 [7]; PC-3, read-out: Growth percent
  activity at 10 µM: -12%
OVCAR-3 [8]; OVCAR-3
  GI50: 1.74 µM
LOX IMVI
  activity at 10 µM: -96%
NCI-H23; NCI-H23
  GI50: 2.31 µM
MCF7; MCF7, read-out: Growth percent
  activity at 10 µM: -72.2%
SR
  GI50: 1.35 µM
OVCAR-8; OVCAR-8
  GI50: 2.97 µM
SW-620; SW-620, read-out: Growth percent
  activity at 10 µM: 3.91%
SF-539; SF-539
  GI50: 2.94 µM
OVCAR-3 [9]; OVCAR-3, read-out: Growth percent
  activity at 10 µM: -48.6%
EKVX
  activity at 10 µM: 15.4%
SNB-19; SNB-19, read-out: Growth percent
  activity at 10 µM: -60%
SF-295; SF-295
  GI50: 4.41 µM
HT29
  GI50: 1.88 µM
OVCAR-4; OVCAR-4, read-out: Growth percent
  activity at 10 µM: 17.7%
